The source of these data is PMC5428521, “Identification of a Novel, Small Molecule Partial Agonist for the Cyclic AMP Sensor, EPAC1” (Scientific Reports, 2017).

The target in assay [1] is T1, EPAC2 (amino acids 280–993) (Mus musculus, UniProt Q9EQZ6).
T1 construct: EPAC2 (amino acids 280–993); made in house; host or cells: bacteria
T1 sequence (Q9EQZ6 280-993 isoform Q9EQZ6-3): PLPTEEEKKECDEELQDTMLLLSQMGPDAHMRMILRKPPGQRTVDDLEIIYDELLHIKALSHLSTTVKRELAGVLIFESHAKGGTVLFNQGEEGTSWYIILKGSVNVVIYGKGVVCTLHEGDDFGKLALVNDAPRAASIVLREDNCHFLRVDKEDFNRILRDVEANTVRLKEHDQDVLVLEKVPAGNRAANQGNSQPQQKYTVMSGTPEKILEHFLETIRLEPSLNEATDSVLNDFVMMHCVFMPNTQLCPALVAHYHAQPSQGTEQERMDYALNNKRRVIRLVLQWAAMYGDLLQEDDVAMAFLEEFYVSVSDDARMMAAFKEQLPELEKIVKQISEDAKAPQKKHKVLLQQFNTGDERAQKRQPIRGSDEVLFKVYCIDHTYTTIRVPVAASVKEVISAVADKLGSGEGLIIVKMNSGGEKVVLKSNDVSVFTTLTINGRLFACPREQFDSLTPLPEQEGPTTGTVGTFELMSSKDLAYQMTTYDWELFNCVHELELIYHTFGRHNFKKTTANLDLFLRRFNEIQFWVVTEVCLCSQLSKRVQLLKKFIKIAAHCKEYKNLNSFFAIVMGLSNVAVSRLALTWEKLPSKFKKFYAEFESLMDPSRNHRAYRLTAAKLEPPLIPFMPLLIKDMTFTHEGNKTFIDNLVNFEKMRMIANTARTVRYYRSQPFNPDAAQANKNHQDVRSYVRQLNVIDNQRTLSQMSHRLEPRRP
Nature of the assay: In vitro GEF activity assay (MANT-GDP dissociation from Rap1), EPAC2. It is filed as biochemical. The following applies: for IC50: IC50, GEF Inhibition (with cAMP), 50 μM cAMP; for GEF Activation (no cAMP), AC50 / induced EPAC2 activity: absence of cAMP, N/A = inability to promote GEF activity of EPAC2. How it is done: EPAC1 and EPAC2 in vitro GEF activities were calculated as previously described. Briefly, recombinant EPAC1 (amino acids 149–881) or EPAC2 (amino acids 280–993) were incubated at 100 nM with recombinant Rap1 (200 nM) preloaded with the fluorescent GDP analogue 2′/3′-O-(N-Methylanthraniloyl)guanosine 5-diphosphate (MANT-GDP) in the presence of 20 μM GDP and then the fluorescence intensity was measured at 360/450 nm (ex/em) over time. […] AC50 or IC50 values were determined from the plots of kobs against the concentration of the agonist and antagonist, respectively Table 1.

In another assay the target is T2, EPAC1-CNB (Homo sapiens, UniProt O95398).
T2 construct: EPAC1-CNB (amino acids 169–318 of EPAC1); made in house; host or cells: BL-21 Escherichia coli (pGEX-6P-1)
T2 sequence (O95398 169-318 isoform O95398-3): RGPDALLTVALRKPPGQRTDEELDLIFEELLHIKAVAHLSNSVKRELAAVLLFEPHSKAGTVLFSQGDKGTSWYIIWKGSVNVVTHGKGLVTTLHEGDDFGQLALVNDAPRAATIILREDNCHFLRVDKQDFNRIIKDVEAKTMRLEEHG
Nature of the assay: Ligand observed NMR (1D and waterLOGSY) with EPAC1-CNB. The settings on record: compound 50 µM, protein 2.5 µM. It is filed as binding. The text has this: (§1) Given that I942 seems to exert selective agonist properties against EPAC1, but not EPAC2, we next sought to validate whether our isolated ligands can interact with EPAC1 and EPAC2. Ligand observed nuclear magnetic resonance (NMR) is a valuable tool for the identification and validation of small molecule ligands. We therefore used one dimensional proton (1D) and water-ligand observed by gradient spectroscopy (waterLOGSY) NMR to confirm the ability of I942 and I178 to bind to the purified CNBs of EPAC1 and EPAC2, in comparison with the commercially available EPAC1 antagonist, ESI-09[32]. In order to assess ligand/CNB interaction, 1D and waterLOGSY experiments were performed on each compound (50 µM) in the presence or absence of 2.5 µM EPAC-CNB. In the absence of protein, each test compound produced a well-resolved 1D spectrum and a region of each spectrum was chosen to display distinctive spectral peaks originating from the ligand (Fig. 6). In the absence of protein, the corresponding waterLOGSY peaks were small, or absent, due to the negligible signal produced by saturation transfer from water to the freely tumbling small molecule. […] In waterLOGSY spectra, protein-mediated saturation transfer can only occur if the protein-ligand complex has a substantial lifetime. […]
(§2) (A) One dimensional proton (1D) and waterLOGSY (WL) spectra were performed on samples containing hit compound I942 (50 µM) in the absence and presence of EPAC1-CNB, EPAC2-CNB or GST alone, as indicated (2.5 µM). […] Interaction between compound and protein was assessed through comparison of the compound alone and protein-compound sample spectra. […]
(§3) All NMR spectra were recorded on a Bruker AVANCE IIIHD 600 spectrometer equipped with a TCI cryoprobe at 285 K. Test compounds were prepared in deuterated DMSO and diluted to given experimental concentrations in NMR buffer (20 mM Na2PO4, pH 7.0, 50 mM NaCl, 0.1% (w/v) NaN3, 5% (v/v) D2O) with a final DMSO concentration below 0.1%. […] One dimensional proton (1D) and waterLOGSY spectra were recorded for all compounds tested, using pulse sequences as previously described. […]

A further assay addresses GST (Schistosoma japonicum, UniProt P08515). Nature of the assay: Ligand observed NMR (1D and waterLOGSY) with GST alone. It counts as binding. The settings on record: compound 50 µM, GST 2.5 µM.
Source text: as §1, §2, §3

Values joined by “and” are separate entries in the source; they are usually repeats but may differ in a detail not shown here. Equal entries are not always repeated.

By IC50 is commonly meant the concentration that inhibits the measured activity by half.

Sequence of GST (P08515 whole entry): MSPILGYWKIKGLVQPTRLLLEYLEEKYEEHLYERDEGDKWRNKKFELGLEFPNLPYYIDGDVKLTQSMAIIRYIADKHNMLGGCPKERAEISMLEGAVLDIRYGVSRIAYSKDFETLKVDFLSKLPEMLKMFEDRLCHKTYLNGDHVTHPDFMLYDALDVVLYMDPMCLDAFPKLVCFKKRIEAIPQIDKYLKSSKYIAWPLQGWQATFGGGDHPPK

With `O=C(COc1ccc2ccccc2c1)NS(=O)(=O)c1ccccc1` [I178, N-(benzenesulfonyl)-2-(naphthalen-2-yloxy)acetamide], in assay [1], the IC50 is 250 µM and ~250 µM; the “GEF Activation (no cAMP), AC50 / induced EPAC2 activity” value was “very weak”. In addition, the NMR interaction entry at EPAC1-CNB is listed as “Strong, Specific Interaction”. The “NMR interaction with GST alone” value on GST is “No peak broadening”.

Turning to `Cc1ccc(S(=O)(=O)NC(=O)COc2ccc3ccccc3c2)c(C)c1` [I942, N-(2,4-dimethylbenzenesulfonyl)-2-(naphthalen-2-yloxy)acetamide], in assay [1], the IC50 is 110 µM and ~110 µM; the “GEF Activation (no cAMP), AC50 / induced EPAC2 activity” value is reported as “very weak”. In addition, the Kd in assay [1] (read-out: affinity for EPAC2 280–993, approximated) is around 5 µM. Also, on EPAC1-CNB, the NMR interaction entry is “Strong, Specific Interaction”. The “NMR interaction with GST alone” value on GST is listed as “No peak broadening”.
